In one experiment the target is hMAO-B (Homo sapiens (Human), UniProt P27338). Put plainly: MAO-B assay (luminogenic MAO substrate). The class given is biochemical. The note with it: microsome contained MAO-B, 16 uM substrate, 20 min pre-incubation; unit inferred. On the procedure:
(§1) MAO assays included luminogenic MAO substrate, reaction buffers, Luciferin Detection and the reconstitution buffer with esterase. Standard MAO reaction mixtures included microsome contained MAO-A (2 ug) or MAO-B (10 ug), 160 uM substrate for MAO-A or 16 uM substrate for MAO-B, MAO-A buffer (100 mM Hepes buffer, pH 7.5, 5% glycerol) or MAO-B buffer (100 mM Hepes, pH 7.5, 5% glycerol, 10% dimethyl sulfoxide) in a final volume of 30 ul. After 20 minutes of pre-incubation of the enzyme with compounds, the reaction was initiated by adding enzyme substrate and the reaction was allowed to proceed for 60 minutes. Reconstituted Luciferin Detection Reagent (30 ul) was then added is added to simultaneously stop the MAO reaction and convert the methyl ester derivative to luciferin and produce light. The amount of light produced is directly proportional to the activity of MAO. The mixtures were further incubated for 20 minutes and activity of the enzyme was determined using Perkin-Elmer Envision Reader.
(§2) Note: IC50 refers to the concentration of a compound that inhibits a reaction by 50%. In the case of competitive inhibition, IC50=2Ki when the substrate is present at the Km concentration, as per the relationship: Ki=IC50/[1+(substrate concentration/Km)].

The target of the next experiment is recombinant human ALDH2 (Homo sapiens (Human), UniProt P05091). Put plainly: ALDH2 assay (NADH formation). It counts as biochemical. Particulars: 10 nM recombinant human ALDH2, 150 uM formaldehyde, 60 min pre-incubation; read-out: IC50 hALDH2. The protocol: Standard ALDH2 reaction mixtures contained 150 uM formaldehyde, 2.5 mM NAD^+, 10 mM MgCl2 and 10 nM recombinant human ALDH2 in 50 mM Hepes buffer, pH 7.4, 0.01% Tween 20 in a final volume of 50 ul using 384-well plates. After 60 min of pre-incubation of compound with ALDH2 and formaldehyde, the reaction was started by adding NAD+ and the reaction mixture was allowed to proceed for 90 minutes. Activity of the enzyme was determined by monitoring NADH formation using Perkin-Elmer Envision Reader with excitation and emission wavelengths set at 340 and 460 nm, respectively.
Sequence of recombinant human ALDH2 (P05091 18-517): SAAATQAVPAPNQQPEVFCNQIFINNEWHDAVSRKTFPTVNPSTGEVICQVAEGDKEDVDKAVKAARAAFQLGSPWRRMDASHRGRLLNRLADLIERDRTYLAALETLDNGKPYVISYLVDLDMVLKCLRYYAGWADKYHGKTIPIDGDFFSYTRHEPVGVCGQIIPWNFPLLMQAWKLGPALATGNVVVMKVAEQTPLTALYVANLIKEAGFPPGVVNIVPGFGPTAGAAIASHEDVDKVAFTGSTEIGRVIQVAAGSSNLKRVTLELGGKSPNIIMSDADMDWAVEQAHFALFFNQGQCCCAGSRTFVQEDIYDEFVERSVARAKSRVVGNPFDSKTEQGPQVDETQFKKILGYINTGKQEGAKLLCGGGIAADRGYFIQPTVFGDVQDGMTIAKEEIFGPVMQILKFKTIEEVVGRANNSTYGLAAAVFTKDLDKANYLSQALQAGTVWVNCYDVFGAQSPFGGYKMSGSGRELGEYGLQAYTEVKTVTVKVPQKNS
as §2

The next experiment concerns the target hMAO-A (Homo sapiens (Human), UniProt P21397). As to the kind of experiment: MAO-A assay (luminogenic MAO substrate). The note with it: microsome contained MAO-A, 160 uM substrate, 20 min pre-incubation; unit inferred. It counts as biochemical. On the procedure: as §1, §2
The test system of another experiment is ethanol intake. Particulars: literature (Keung and Vallee); cited from earlier work.
The target of experiment [1] is human mitochondrial aldehyde dehydrogenase (ALDH-2) (Homo sapiens (Human), UniProt P05091). Particulars: U.S. Pat. Nos. 5,624,910 and 6,121,010; cited from earlier work.
Sequence of human mitochondrial aldehyde dehydrogenase (ALDH-2) (P05091 18-517): as above
Experiment [2] relates to cocaine dependency and relapse. As to the kind of experiment: Operant cocaine self administration and reinstatement model in rats. Particulars: p.o.

“Also recorded” adds a separate entry of the source.

What is called IC50 is the concentration needed to halve the response being measured.

Sequence of hMAO-B (P27338 whole entry): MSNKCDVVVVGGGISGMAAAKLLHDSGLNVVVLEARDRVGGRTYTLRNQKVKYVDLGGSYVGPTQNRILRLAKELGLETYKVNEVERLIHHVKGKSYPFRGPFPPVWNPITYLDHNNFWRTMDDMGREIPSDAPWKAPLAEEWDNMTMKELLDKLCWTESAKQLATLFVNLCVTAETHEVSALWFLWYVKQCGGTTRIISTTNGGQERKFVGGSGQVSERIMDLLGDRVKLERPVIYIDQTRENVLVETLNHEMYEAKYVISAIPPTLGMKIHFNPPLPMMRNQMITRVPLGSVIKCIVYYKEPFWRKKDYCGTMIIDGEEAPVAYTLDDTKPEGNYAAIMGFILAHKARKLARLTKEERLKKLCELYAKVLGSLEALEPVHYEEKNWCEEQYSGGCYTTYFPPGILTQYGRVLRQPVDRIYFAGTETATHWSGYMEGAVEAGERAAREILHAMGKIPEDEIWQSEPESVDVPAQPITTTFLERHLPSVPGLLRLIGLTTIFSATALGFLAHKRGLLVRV
Sequence of hMAO-A (P21397 whole entry): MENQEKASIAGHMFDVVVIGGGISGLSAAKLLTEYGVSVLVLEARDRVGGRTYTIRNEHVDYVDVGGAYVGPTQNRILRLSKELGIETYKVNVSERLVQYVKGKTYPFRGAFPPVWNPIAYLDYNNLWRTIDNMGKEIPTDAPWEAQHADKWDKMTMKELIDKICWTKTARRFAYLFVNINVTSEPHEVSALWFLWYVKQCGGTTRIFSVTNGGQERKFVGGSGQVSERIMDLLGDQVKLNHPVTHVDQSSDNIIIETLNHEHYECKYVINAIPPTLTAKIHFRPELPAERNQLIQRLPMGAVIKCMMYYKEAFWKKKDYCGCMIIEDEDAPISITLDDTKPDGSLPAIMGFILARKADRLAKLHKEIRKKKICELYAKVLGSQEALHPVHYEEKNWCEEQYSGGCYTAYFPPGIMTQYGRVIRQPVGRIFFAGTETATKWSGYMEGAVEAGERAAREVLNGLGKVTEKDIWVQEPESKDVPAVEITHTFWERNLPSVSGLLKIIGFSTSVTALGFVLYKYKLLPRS

For the molecule `CS(=O)(=O)Nc1ccc(-c2coc3cc(C#Cc4ccccn4)ccc3c2=O)cc1` [N-(4-(4-oxo-7-(pyridin-2-ylethynyl)-4H-chromen-3-yl)phenyl)methanesulfonamide], the figures for the IC50 at hMAO-B, on recombinant human ALDH2 and at hMAO-A were above 130 µM, 0.09 µM and above 130 µM, respectively.
With `CS(=O)(=O)Nc1ccc(-c2coc3cc(C#Cc4cc[nH]c(=O)c4)ccc3c2=O)cc1` [N-(4-(4-oxo-7-((2-oxo-1,2-dihydropyridin-4-yl)ethynyl)-4H-chromen-3-yl)phenyl)methanesulfonamide], the IC50 against hMAO-B was above 130 µM; at recombinant human ALDH2, 0.009 µM; against hMAO-A, above 130 µM.
For `Cc1ncc(C#Cc2ccc3c(=O)c(-c4ccc(NS(C)(=O)=O)cc4)coc3c2)n1C` [N-(4-(7-((1,2-dimethyl-1H-imidazol-5-yl)ethynyl)-4-oxo-4H-chromen-3-yl)phenyl)methanesulfonamide], the IC50 at hMAO-B was above 130 µM; at recombinant human ALDH2, 0.015 µM; against hMAO-A, above 130 µM.
Consider `CC(C)CN1CC(C#Cc2ccc3c(=O)c(-c4ccc(NS(C)(=O)=O)cc4)coc3c2)C1` [N-(4-(7-((1-isobutylazetidin-3-yl)ethynyl)-4-oxo-4H-chromen-3-yl)phenyl)methanesulfonamide], for which the half-inhibitory concentration (IC50) was above 130 µM against hMAO-B, 0.109 µM on recombinant human ALDH2 and above 130 µM at hMAO-A.
As to `O=c1c(-c2ccc(O)cc2)coc2cc(O)ccc12` [daidzein], the suppressing ethanol intake entry in the experiment with ethanol intake was “effective in suppressing ethanol intake; also recorded: effective in suppressing ethanol uptake”.
For `CS(=O)(=O)Nc1ccc(-c2coc3cc(C#CC4CN(C(=O)C5CCC5)C4)ccc3c2=O)cc1` [N-(4-(7-((1-(cyclobutanecarbonyl)azetidin-3-yl)ethynyl)-4-oxo-4H-chromen-3-yl)phenyl)methanesulfonamide], the IC50 is above 130 µM at hMAO-B, 0.004 µM at recombinant human ALDH2 and above 130 µM against hMAO-A.
Consider `CC1(O)CC(C(=O)N2CC(C#Cc3ccc4c(=O)c(-c5ccc(NS(C)(=O)=O)cc5)coc4c3)C2)C1` (centres unmarked) [N-(4-(7-((1-(3-hydroxy-3-methylcyclobutane-carbonyl)azetidin-3-yl)ethynyl)-4-oxo-4H-chromen-3-yl)phenyl)methanesulfonamide], for which the IC50 against hMAO-B is above 130 µM; on recombinant human ALDH2, 0.005 µM; against hMAO-A, above 130 µM.
On to `CC(C)(C)OC(=O)N1CCC(C#Cc2ccc3c(=O)c(-c4ccc(NS(C)(=O)=O)cc4)coc3c2)CC1` [tert-butyl 4-((3-(4-(methylsulfonamido)phenyl)-4-oxo-4H-chromen-7-yl)ethynyl)piperidine-1-carboxylate], for which the 50% inhibitory concentration (IC50) against hMAO-B was above 130 µM; at recombinant human ALDH2, 0.086 µM; on hMAO-A, above 130 µM.
For `CC(C)n1cncc1C#Cc1ccc2c(=O)c(-c3ccc(NS(C)(=O)=O)cc3)coc2c1` [N-(4-(7-((1-isopropyl-1H-imidazol-5-yl)ethynyl)-4-oxo-4H-chromen-3-yl)phenyl)methanesulfonamide], the IC50 was above 130 µM against hMAO-B, 0.007 µM at recombinant human ALDH2 and above 130 µM on hMAO-A.
In the case of `CS(=O)(=O)Nc1ccc(-c2coc3cc(C#CC4CN(C(=O)C5CC5(F)F)C4)ccc3c2=O)cc1` (centres unmarked) [N-(4-(7-((1-(2,2-difluorocyclopropane-carbonyl)azetidin-3-yl)ethynyl)-4-oxo-4H-chromen-3-yl)phenyl)methanesulfonamide], the half-maximal inhibitory concentration (IC50) at hMAO-B was above 130 µM; on recombinant human ALDH2, 0.005 µM; on hMAO-A, above 130 µM.
As for `COCC#Cc1ccc2c(=O)c(-c3ccc(NS(=O)(=O)C4CC4)cc3)coc2c1` [N-(4-(7-(3-methoxyprop-1-ynyl)-4-oxo-4H-chromen-3-yl)phenyl)cyclopropanesulfonamide], the values for the 50% inhibitory concentration (IC50) against hMAO-B, at recombinant human ALDH2 and at hMAO-A were above 130 µM, 0.096 µM and above 130 µM, respectively.
Consider `CC1(C(=O)N2CC(C#Cc3ccc4c(=O)c(-c5ccc(NS(C)(=O)=O)cc5)coc4c3)C2)CC1` [N-(4-(7-((1-(1-methylcyclopropanecarbonyl)-azetidin-3-yl)ethynyl)-4-oxo-4H-chromen-3-yl)phenyl)methanesulfonamide], for which the IC50 on hMAO-B is above 130 µM; on recombinant human ALDH2, 0.006 µM; on hMAO-A it was above 130 µM.
Turning to `CS(=O)(=O)Nc1ccc(-c2coc3cc(C#CC4CCNCC4)ccc3c2=O)cc1` [N-(4-(4-oxo-7-(piperidin-4-ylethynyl)-4H-chromen-3-yl)phenyl)methanesulfonamide], the IC50 was above 130 µM against hMAO-B, 0.174 µM at recombinant human ALDH2 and above 110 µM on hMAO-A.
For `CC(C)(O)C#Cc1ccc2c(=O)c(-c3ccc(NS(C)(=O)=O)cc3)coc2c1` [N-(4-(7-(3-hydroxy-3-methylbut-1-ynyl)-4-oxo-4H-chromen-3-yl)phenyl)methanesulfonamide], in that order: above 91 µM, 2.18 µM and above 91 µM.
`CS(=O)(=O)Nc1ccc(-c2coc3cc(C#CC4(N)CCCCC4)ccc3c2=O)cc1` [N-(4-(7-((1-aminocyclohexyl)ethynyl)-4-oxo-4H-chromen-3-yl)phenyl)methanesulfonamide]: the values for the 50% inhibitory concentration (IC50) on hMAO-B, on recombinant human ALDH2 and at hMAO-A were above 130 µM, 0.528 µM and above 130 µM, respectively.
As for `O=c1c(-c2ccc(O)cc2)coc2cc(O[C@@H]3O[C@H](CO)[C@@H](O)[C@H](O)[C@H]3O)ccc12` [Daidzin, daidzin], the “inhibition of ALDH-2” value in experiment [1] was “potent and selective inhibitors”.
With `CS(=O)(=O)Nc1ccc(-c2coc3cc(C#CC4CN(C(=O)C5CC5)C4)ccc3c2=O)cc1` [N-(4-(7-((1-(cyclopropanecarbonyl)azetidin-3-yl)ethynyl)-4-oxo-4H-chromen-3-yl)phenyl)methanesulfonamide], the half-maximal inhibitory concentration (IC50) is above 130 µM on hMAO-B, 0.005 µM at recombinant human ALDH2 and above 130 µM against hMAO-A. Besides, the “reduced cocaine dependency, as reduction in the average presses of the active lever” value is 70% in experiment [2] (2.5 mg/Kg, 2 hour pre-treatment); 60% in experiment [2] (5.0 mg/Kg, 2 hour pre-treatment); 87% in experiment [2] (10.0 mg/kg, 1 hour pre-treatment).
As to `COCC#Cc1ccc2c(=O)c(-c3ccc(NS(C)(=O)=O)cc3)coc2c1` [N-(4-(7-(3-methoxyprop-1-ynyl)-4-oxo-4H-chromen-3-yl)phenyl)methanesulfonamide], the IC50 is above 130 µM at hMAO-B, 0.047 µM at recombinant human ALDH2 and above 130 µM at hMAO-A.
